From ChEMBL document CHEMBL3046801, “Synthesis of 2-R1-2-(4-(2-fluoroethoxy)benzamido)acetate as potential PET imaging agents” (Med Chem Res, 2012)

Columns and labels:
Liver [1] = assay: Biodistribution in tumor bearing Mus musculus KM (mouse) liver at 60 min by microPET imaging analysis; assay type: ADME, organism-based; settings: in vivo, 1 h
Nucleic Acid [2] = assay: Ratio of drug uptake in tumor to muscle in Mus musculus KM (mouse) at 120 min; assay type: ADME; settings: in vivo, 2 h
Brain [3] = assay: Biodistribution in tumor bearing Mus musculus KM (mouse) brain at 5 min by microPET imaging analysis; assay type: ADME, organism-based; settings: in vivo
Kidney [4] = assay: Biodistribution in tumor bearing Mus musculus KM (mouse) kidney at 5 min by microPET imaging analysis; assay type: ADME, organism-based; settings: in vivo
Muscle tissue [5] = assay: Biodistribution in tumor bearing Mus musculus KM (mouse) muscle at 30 min by microPET imaging analysis; assay type: ADME, organism-based; settings: in vivo, 0.5 h
Spleen [6] = assay: Biodistribution in tumor bearing Mus musculus KM (mouse) spleen at 60 min by microPET imaging analysis; assay type: ADME, organism-based; settings: in vivo, 1 h
Kidney [7] = assay: Biodistribution in tumor bearing Mus musculus KM (mouse) kidney at 60 min by microPET imaging analysis; assay type: ADME, organism-based; settings: in vivo, 1 h
Lung [8] = assay: Biodistribution in tumor bearing Mus musculus KM (mouse) Lung at 15 min by microPET imaging analysis; assay type: ADME, organism-based; settings: in vivo, 0.25 h
Liver [9] = assay: Biodistribution in tumor bearing Mus musculus KM (mouse) liver at 120 min by microPET imaging analysis; assay type: ADME, organism-based; settings: in vivo, 2 h
Liver [10] = assay: Biodistribution in tumor bearing Mus musculus KM (mouse) liver at 30 min by microPET imaging analysis; assay type: ADME, organism-based; settings: in vivo, 0.5 h
Heart [11] = assay: Biodistribution in tumor bearing Mus musculus KM (mouse) heart at 120 min by microPET imaging analysis; assay type: ADME, organism-based; settings: in vivo, 2 h
Blood [12] = assay: Biodistribution in tumor bearing Mus musculus KM (mouse) blood at 60 min by microPET imaging analysis; assay type: ADME, organism-based; settings: in vivo, 1 h
Muscle tissue [13] = assay: Biodistribution in tumor bearing Mus musculus KM (mouse) muscle at 60 min by microPET imaging analysis; assay type: ADME, organism-based; settings: in vivo, 1 h
Blood [14] = assay: Biodistribution in tumor bearing Mus musculus KM (mouse) blood at 30 min by microPET imaging analysis; assay type: ADME, organism-based; settings: in vivo, 0.5 h
Heart [15] = assay: Biodistribution in tumor bearing Mus musculus KM (mouse) heart at 15 min by microPET imaging analysis; assay type: ADME, organism-based; settings: in vivo, 0.25 h
Heart [16] = assay: Biodistribution in tumor bearing Mus musculus KM (mouse) heart at 5 min by microPET imaging analysis; assay type: ADME, organism-based; settings: in vivo
Blood [17] = assay: Biodistribution in tumor bearing Mus musculus KM (mouse) blood at 120 min by microPET imaging analysis; assay type: ADME, organism-based; settings: in vivo, 2 h
Kidney [18] = assay: Biodistribution in tumor bearing Mus musculus KM (mouse) kidney at 120 min by microPET imaging analysis; assay type: ADME, organism-based; settings: in vivo, 2 h
Tumour [19] = assay: Biodistribution in Mus musculus KM (mouse) tumor at 30 min by microPET imaging analysis; assay type: ADME, organism-based, Neoplasm; settings: in vivo, 0.5 h
Heart [20] = assay: Biodistribution in tumor bearing Mus musculus KM (mouse) heart at 30 min by microPET imaging analysis; assay type: ADME, organism-based; settings: in vivo, 0.5 h
Nucleic Acid [21] = assay: Ratio of drug uptake in tumor to muscle in Mus musculus KM (mouse) at 15 min; assay type: ADME, nucleic-acid assay; settings: in vivo, 0.25 h
Liver [22] = assay: Biodistribution in tumor bearing Mus musculus KM (mouse) liver at 15 min by microPET imaging analysis; assay type: ADME, organism-based; settings: in vivo, 0.25 h
Tumour [23] = assay: Biodistribution in Mus musculus KM (mouse) tumor at 120 min by microPET imaging analysis; assay type: ADME, organism-based, Neoplasm; settings: in vivo, 2 h
Spleen [24] = assay: Biodistribution in tumor bearing Mus musculus KM (mouse) spleen at 30 min by microPET imaging analysis; assay type: ADME, organism-based; settings: in vivo, 0.5 h
Tumour [25] = assay: Biodistribution in Mus musculus KM (mouse) tumor at 5 min by microPET imaging analysis; assay type: ADME, organism-based, Neoplasm; settings: in vivo
Kidney [26] = assay: Biodistribution in tumor bearing Mus musculus KM (mouse) kidney at 30 min by microPET imaging analysis; assay type: ADME, organism-based; settings: in vivo, 0.5 h
Spleen [27] = assay: Biodistribution in tumor bearing Mus musculus KM (mouse) spleen at 15 min by microPET imaging analysis; assay type: ADME, organism-based; settings: in vivo, 0.25 h
Tumour [28] = assay: Biodistribution in Mus musculus KM (mouse) tumor at 60 min by microPET imaging analysis; assay type: ADME, organism-based, Neoplasm; settings: in vivo, 1 h
Brain [29] = assay: Biodistribution in tumor bearing Mus musculus KM (mouse) brain at 60 min by microPET imaging analysis; assay type: ADME, organism-based; settings: in vivo, 1 h
Brain [30] = assay: Biodistribution in tumor bearing Mus musculus KM (mouse) brain at 30 min by microPET imaging analysis; assay type: ADME, organism-based; settings: in vivo, 0.5 h
Nucleic Acid [31] = assay: Ratio of drug uptake in tumor to muscle in Mus musculus KM (mouse) at 60 min; assay type: ADME, nucleic-acid assay; settings: in vivo, 1 h
Muscle tissue [32] = assay: Biodistribution in tumor bearing Mus musculus KM (mouse) muscle at 5 min by microPET imaging analysis; assay type: ADME, organism-based; settings: in vivo
Liver [33] = assay: Biodistribution in tumor bearing Mus musculus KM (mouse) liver at 5 min by microPET imaging analysis; assay type: ADME, organism-based; settings: in vivo
Brain [34] = assay: Biodistribution in tumor bearing Mus musculus KM (mouse) brain at 15 min by microPET imaging analysis; assay type: ADME, organism-based; settings: in vivo, 0.25 h
Blood [35] = assay: Biodistribution in tumor bearing Mus musculus KM (mouse) blood at 5 min by microPET imaging analysis; assay type: ADME, organism-based; settings: in vivo
Kidney [36] = assay: Biodistribution in tumor bearing Mus musculus KM (mouse) kidney at 15 min by microPET imaging analysis; assay type: ADME, organism-based; settings: in vivo, 0.25 h
Muscle tissue [37] = assay: Biodistribution in tumor bearing Mus musculus KM (mouse) muscle at 120 min by microPET imaging analysis; assay type: ADME, organism-based; settings: in vivo, 2 h
Blood [38] = assay: Biodistribution in tumor bearing Mus musculus KM (mouse) blood at 15 min by microPET imaging analysis; assay type: ADME, organism-based; settings: in vivo, 0.25 h
Spleen [39] = assay: Biodistribution in tumor bearing Mus musculus KM (mouse) spleen at 5 min by microPET imaging analysis; assay type: ADME, organism-based; settings: in vivo
Spleen [40] = assay: Biodistribution in tumor bearing Mus musculus KM (mouse) spleen at 120 min by microPET imaging analysis; assay type: ADME, organism-based; settings: in vivo, 2 h
Tumour [41] = assay: Biodistribution in Mus musculus KM (mouse) tumor at 15 min by microPET imaging analysis; assay type: ADME, organism-based, Neoplasm; settings: in vivo, 0.25 h
Brain [42] = assay: Biodistribution in tumor bearing Mus musculus KM (mouse) brain at 120 min by microPET imaging analysis; assay type: ADME, organism-based; settings: in vivo, 2 h
Lung [43] = assay: Biodistribution in tumor bearing Mus musculus KM (mouse) Lung at 30 min by microPET imaging analysis; assay type: ADME, organism-based; settings: in vivo, 0.5 h
Lung [44] = assay: Biodistribution in tumor bearing Mus musculus KM (mouse) Lung at 120 min by microPET imaging analysis; assay type: ADME, organism-based; settings: in vivo, 2 h
Heart [45] = assay: Biodistribution in tumor bearing Mus musculus KM (mouse) heart at 60 min by microPET imaging analysis; assay type: ADME, organism-based; settings: in vivo, 1 h
Lung [46] = assay: Biodistribution in tumor bearing Mus musculus KM (mouse) Lung at 60 min by microPET imaging analysis; assay type: ADME, organism-based; settings: in vivo, 1 h
Muscle tissue [47] = assay: Biodistribution in tumor bearing Mus musculus KM (mouse) muscle at 15 min by microPET imaging analysis; assay type: ADME, organism-based; settings: in vivo, 0.25 h
Nucleic Acid [48] = assay: Ratio of drug uptake in tumor to muscle in Mus musculus KM (mouse) at 30 min; assay type: ADME, nucleic-acid assay; settings: in vivo, 0.5 h
Lung [49] = assay: Biodistribution in tumor bearing Mus musculus KM (mouse) Lung at 5 min by microPET imaging analysis; assay type: ADME, organism-based; settings: in vivo

## OC[C@H]1OC(O)[C@H]([18F])[C@@H](O)[C@@H]1O (some centres undefined) [FLUDEOXYGLUCOSE F 18]
Liver [1]
  Drug uptake: 0.5 % ID/g
Nucleic Acid [2]
  Ratio: 1.74
Brain [3]
  Drug uptake: 3.81 % ID/g
Kidney [4]
  Drug uptake: 3.36 % ID/g
Muscle tissue [5]
  Drug uptake: 2.08 % ID/g
Spleen [6]
  Drug uptake: 1.83 % ID/g
Kidney [7]
  Drug uptake: 0.9 % ID/g
Lung [8]
  Drug uptake: 1.96 % ID/g
Liver [9]
  Drug uptake: 0.49 % ID/g
Liver [10]
  Drug uptake: 0.46 % ID/g
Heart [11]
  Drug uptake: 9.6 % ID/g
Blood [12]
  Drug uptake: 0.19 % ID/g
Muscle tissue [13]
  Drug uptake: 1.99 % ID/g
Blood [14]
  Drug uptake: 0.29 % ID/g
Heart [15]
  Drug uptake: 6.12 % ID/g
Heart [16]
  Drug uptake: 5.33 % ID/g
Blood [17]
  Drug uptake: 0.15 % ID/g
Kidney [18]
  Drug uptake: 0.52 % ID/g
Tumour [19]
  Drug uptake: 3.16 % ID/g
Heart [20]
  Drug uptake: 6.42 % ID/g
Nucleic Acid [21]
  Ratio: 1.28
Liver [22]
  Drug uptake: 0.92 % ID/g
Tumour [23]
  Drug uptake: 3.12 % ID/g
Spleen [24]
  Drug uptake: 1.75 % ID/g
Tumour [25]
  Drug uptake: 1.96 % ID/g
Kidney [26]
  Drug uptake: 1.07 % ID/g
Spleen [27]
  Drug uptake: 1.98 % ID/g
Tumour [28]
  Drug uptake: 3.86 % ID/g
Brain [29]
  Drug uptake: 3.51 % ID/g
Brain [30]
  Drug uptake: 4.25 % ID/g
Nucleic Acid [31]
  Ratio: 1.94
Muscle tissue [32]
  Drug uptake: 2.92 % ID/g
Liver [33]
  Drug uptake: 1.85 % ID/g
Brain [34]
  Drug uptake: 4.55 % ID/g
Blood [35]
  Drug uptake: 2.01 % ID/g
Kidney [36]
  Drug uptake: 2.05 % ID/g
Muscle tissue [37]
  Drug uptake: 1.85 % ID/g
Blood [38]
  Drug uptake: 0.94 % ID/g
Spleen [39]
  Drug uptake: 1.92 % ID/g
Spleen [40]
  Drug uptake: 1.35 % ID/g
Tumour [41]
  Drug uptake: 2.97 % ID/g
Brain [42]
  Drug uptake: 1.89 % ID/g
Lung [43]
  Drug uptake: 1.4 % ID/g
Lung [44]
  Drug uptake: 1.05 % ID/g
Heart [45]
  Drug uptake: 8.87 % ID/g
Lung [46]
  Drug uptake: 1.52 % ID/g
Muscle tissue [47]
  Drug uptake: 2.33 % ID/g
Nucleic Acid [48]
  Ratio: 1.52
Lung [49]
  Drug uptake: 2.37 % ID/g
